Test results taken from PMC10384175, “In Vitro and In Silico Evaluation of Antiproliferative Activity of New Isoxazolidine Derivatives Targeting EGFR: Design, Synthesis, Cell Cycle Analysis, and Apoptotic Inducers” (Pharmaceuticals, 2023).

Assays:
[1] = tested on: MCF-7; experiment: MTT antiproliferative assay, MCF-7; type: cell-based, human
Procedure: (§1) Compounds 2a–g were tested for their growth inhibitory effectiveness against MCF-7, A-549, and SKOV3 cell lines by means of MTT assay, with doxorubicin used as an anticancer standard drug. […] Remarkably, we note the high antiproliferative activity of 2c and 2d, only towards SKOV3.
(§2) The Roswell Park Memorial Institute medium (RPMI 1640, Gibco, Grand Island, NY, USA) was used to culture the following cancer cell lines including MCF-7, A549, and SKOV3. Cells were grown in FBS (10%) and 100 units mL PS (penicillin/streptomycin) and were supplied to the same medium under standard cell conditions in an incubator (5% of CO2, at 37 °C).
(§3) Cell viability was measured according to the previously published work.

[2] = tested on: A549; experiment: MTT antiproliferative assay, A549; type: cell-based, human
Procedure: Cell viability was measured according to the previously published work [42].

[3] = tested on: SKOV-3; experiment: MTT antiproliferative assay, SKOV3; type: cell-based, human
Procedure: as §1, §2, §3

[4] = tested on: MCF-7; experiment: Cellular apoptosis assay (flow cytometry), MCF-7; type: cell-based, human; conditions: MCF-7, at IC50, 48 h
[5] = tested on: A549; experiment: Cellular apoptosis assay (flow cytometry), A549; type: cell-based, human; conditions: A549, at IC50, 48 h
[6] = tested on: SKOV3; experiment: Cellular apoptosis assay (flow cytometry), SKOV3; type: cell-based, human; conditions: SKOV3, at IC50, 48 h
[7] = tested on: MCF-7; experiment: Flow cytometric cell cycle analysis (PI), MCF-7; type: cell-based, human; conditions: for (%) of cells in G0/G1 / (%) of cells in S: MCF-7, 48 h at IC50; for cell cycle arrest phase: MCF-7
Procedure: (§4) Based on the antiproliferative activity data shown above, a flow cytometry analysis was performed to identify the cell cycle arrest induced by the selected compounds (2f and 2g) in the three cell lines, for 48 h at their respective IC50 concentrations (Figure 4). The cell cycle (G1, S, and G2) was analyzed after staining the DNA with propidium iodide (PI). […] Towards SKOV3 cell lines, the population of cells in the G0/G1 phase was not affected for 2f (31.4 ± 1.2 vs. 30.8 ± 1.5) and increased for 2g (31.4 ± 1.2 vs. 44.5 ± 0.6). Moreover, in the S phase, it was increased for 2f (43.1 ± 0.6vs. 59.5 ± 0.2) and not affected for 2g (43.1 ± 0.6 vs. 44.8 ± 1.6), however, it decreased in the G2/M phase for both 2f and 2g by a factor of 2.83 and 2.44, respectively.
(§5) The effect of selected compounds on cell cycle phase distribution was determined by flow cytometry using the same protocol described elsewhere.

[8] = tested on: A549; experiment: Flow cytometric cell cycle analysis (PI), A549; type: cell-based, human; conditions: for cell cycle arrest phase: A549
Procedure: The effect of selected compounds on cell cycle phase distribution was determined by flow cytometry using the same protocol described elsewhere [44].

[9] = tested on: SKOV3; experiment: Flow cytometric cell cycle analysis (PI), SKOV3; type: cell-based, human; conditions: for (%) of cells in G0/G1 / (%) of cells in S / decrease in the G2/M phase vs control, factor: SKOV3, 48 h at IC50; for cell cycle arrest phase: SKOV3
Procedure: as §4, §5

[10] = molecular target: EGFR tyrosine kinase (Homo sapiens, UniProt P00533); experiment: EGFR tyrosine kinase inhibition; type: biochemical; conditions: enzymatic inhibition
Sequence of EGFR tyrosine kinase (P00533 25-1210): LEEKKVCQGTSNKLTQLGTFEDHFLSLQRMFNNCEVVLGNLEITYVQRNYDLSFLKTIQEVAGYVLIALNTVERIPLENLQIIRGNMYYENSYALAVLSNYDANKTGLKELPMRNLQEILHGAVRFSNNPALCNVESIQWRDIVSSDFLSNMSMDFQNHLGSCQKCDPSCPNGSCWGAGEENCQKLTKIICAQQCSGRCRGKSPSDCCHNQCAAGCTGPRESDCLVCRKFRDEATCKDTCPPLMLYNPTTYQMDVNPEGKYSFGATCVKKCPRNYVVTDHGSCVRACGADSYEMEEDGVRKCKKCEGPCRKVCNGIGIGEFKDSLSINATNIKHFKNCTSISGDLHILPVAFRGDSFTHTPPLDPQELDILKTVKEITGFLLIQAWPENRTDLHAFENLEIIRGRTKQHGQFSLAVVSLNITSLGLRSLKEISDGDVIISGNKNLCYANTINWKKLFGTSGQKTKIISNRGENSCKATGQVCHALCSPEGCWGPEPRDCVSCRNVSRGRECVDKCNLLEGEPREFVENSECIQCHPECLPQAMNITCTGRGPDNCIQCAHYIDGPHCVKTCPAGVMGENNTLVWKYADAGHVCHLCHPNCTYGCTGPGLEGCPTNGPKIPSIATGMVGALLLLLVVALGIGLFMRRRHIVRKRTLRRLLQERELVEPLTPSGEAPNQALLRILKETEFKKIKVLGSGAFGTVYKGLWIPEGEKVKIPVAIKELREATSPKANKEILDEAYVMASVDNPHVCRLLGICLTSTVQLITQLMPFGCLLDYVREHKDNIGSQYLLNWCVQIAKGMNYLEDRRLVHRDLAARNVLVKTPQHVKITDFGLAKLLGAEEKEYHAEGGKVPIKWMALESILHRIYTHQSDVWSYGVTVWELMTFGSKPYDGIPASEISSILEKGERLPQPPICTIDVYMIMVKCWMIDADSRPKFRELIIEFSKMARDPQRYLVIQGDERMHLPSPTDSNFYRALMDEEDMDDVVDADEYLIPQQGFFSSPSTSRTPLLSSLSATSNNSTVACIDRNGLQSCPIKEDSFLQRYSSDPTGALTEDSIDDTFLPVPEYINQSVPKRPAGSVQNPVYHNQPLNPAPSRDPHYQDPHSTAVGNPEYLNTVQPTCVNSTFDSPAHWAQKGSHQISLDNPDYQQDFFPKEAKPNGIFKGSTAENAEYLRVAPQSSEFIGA
Procedure: The EGFR activity was determined based on the method reported by E.A.A. El-Meguid et al. [43].

[11] = Homo sapiens, SK-OV-3, MTT assay

Compound	IC50 ([1]; MTT assay)	IC50 ([2]; MTT assay)	IC50 ([1]; Homo sapiens, MCF7, MTT assay)	IC50 ([2]; Homo sapiens, A549, MTT assay)	IC50 [3, 11]	Early apoptosis [4]	Intact cells [4]	Late apoptosis [4]	Necrosis [4]	Total death (cellular apoptosis) [4]	Early apoptosis [5]	Intact cells [5]	Late apoptosis [5]	Necrosis [5]	Total death (cellular apoptosis) [5]	Early apoptosis [6]	Intact cells [6]	Late apoptosis [6]	Necrosis [6]	Total death (cellular apoptosis) [6]	other results
(2R,2′R,3a′S,5R)-2′-(2-acetyl-6-hydroxybenzyl)-2,5,5′-trimethyldihydro-2′H-spiro[cyclohexane-1,6′-imidazo [1,5-b]isoxazol]-4′(5′H)-one [2b]	22.2 ± 0.3 µM	48.7 ± 0.9 µM	–	–	–	–	–	–	–	–	–	–	–	–	–	–	–	–	–	–	IC50 ([3]; MTT assay): 18.3 ± 0.9 µM
COc1cccc2c1C(=O)c1c(O)c3c(c(O)c1C2=O)C[C@@](O)(C(=O)CO)C[C@@H]3O[C@H]1C[C@H](N)[C@H](O)[C@H](C)O1 [Doxorubicin, doxorubicin, reference compound]	–	–	2.8 ± 0.4 µM	4.2 ± 0.24 µM	4.2 ± 0.013 µM	17.12%	7.94%	68.7%	6.24%	92.06%	9.38%	1.16%	88.01%	1.45%	98.84%	20.56%	3.25%	73.08%	3.11%	96.75%	(%) of cells in G0/G1 [7]: 18.4 ± 0.9%; (%) of cells in S [7]: 34 ± 0.6%; (%) of cells in G0/G1 ([8]; A549, 48 h at IC50): 16.12 ± 0.54%; (%) of cells in S ([8]; A549, 48 h at IC50): 34.01 ± 0.24%; (%) of cells in G0/G1 [9]: 16.7 ± 1%; (%) of cells in S [9]: 30.7 ± 0.6%
COc1ccc(C[C@@H]2C[C@H]3C(=O)N(C)C4(C[C@H](C)CC[C@H]4C(C)C)N3O2)cc1OC (stereo partly drawn) [2d, (2S,2′R,3a′S,5R)-2′-(3,4-dimethoxybenzyl)-2-isopropyl-5,5′-dimethyldihydro-2′H-spiro[cyclohexane-1,6′-imidazo [1,5-b]isoxazol]-4′(5′H)-one]	–	–	8.7 ± 0.5 µM	25 ± 2.5 µM	27.6 ± 2.2 µM	–	–	–	–	–	–	–	–	–	–	–	–	–	–	–	–
Cc1cccc(C[C@@H]2C[C@H]3C(=O)N(C)C4(C[C@H](C)CC[C@H]4C(C)C)N3O2)c1O (stereo partly drawn) [2c, (2S,2′R,3a′S,5R)-2′-(2-hydroxy-3-methylbenzyl)-2-isopropyl-5,5′-dimethyldihydro-2′H-spiro[cyclohexane-1,6′-imidazo [1,5-b]isoxazol]-4′(5′H)-one]	–	–	7.2 ± 0.2 µM	35.4 ± 0.14 µM	19.4 ± 1.4 µM	–	–	–	–	–	–	–	–	–	–	–	–	–	–	–	–
CC(C)[C@@H]1CC[C@@H](C)C[C@@]12N(C)C(=O)[C@@H]1C[C@@H](Cc3ccccc3O)ON12 [2f, (1S,2S,2′R,3a′S,5R)-2′-(2-Hydroxybenzyl)-2-isopropyl-5,5′-dimethyldihydro-2′H-spiro[cyclohexane-1,6′-imidazo [1,5-b]isoxazol]-4′(5′H)-one]	17.7 ± 1 µM	12.1 ± 1.1 µM	9.7 ± 1.3 µM	9.7 ± 0.7 µM	–	70.48%	13.11%	15.78%	0.63%	86.89%	16.72%	7.39%	70.5%	5.39%	92.61%	17.9%	8.78%	67.16%	6.16%	91.22%	IC50 [10]: 0.298 ± 0.007 µM; cell cycle arrest phase [7]: S phase; (%) of cells in G0/G1 [7]: 19 ± 1.2%; (%) of cells in S [7]: 63.3 ± 0.6%; cell cycle arrest phase [8]: G2/M phase; (%) of cells in G0/G1 ([8]; A549, 48 h at IC50): 23.1 ± 0.8%; cell cycle arrest phase [9]: S phase; (%) of cells in G0/G1 [9]: 31.4 ± 1.2%; (%) of cells in S [9]: 59.5 ± 0.2%; decrease in the G2/M phase vs control, factor [9]: 2.83
COc1cc(C[C@@H]2C[C@H]3C(=O)N(C)[C@@]4(C[C@H](C)CC[C@H]4C(C)C)N3O2)ccc1OC(C)=O [2e, 4-(((1S,2S,2′R,3a′S,5R)-2-Isopropyl-5,5′-dimethyl-4′-oxotetrahydro-2′H-spiro[cyclohexane-1,6′-imidazo [1,5-b]isoxazol]-2′-yl)methyl)-2-methoxyphenyl acetate]	–	–	66.8 ± 2.7 µM	53.5 ± 1.1 µM	27.9 ± 1.9 µM	–	–	–	–	–	–	–	–	–	–	–	–	–	–	–	–
COc1cc(C[C@@H]2C[C@H]3C(=O)N(C)C4(C[C@H](C)CC[C@H]4C(C)C)N3O2)ccc1O (stereo partly drawn) [2a, (2S,2′R,3a′S,5R)-2′-(4-hydroxy-3-methoxybenzyl)-2-isopropyl-5,5′-dimethyldihydro-2′H-spiro[cyclohexane-1,6′-imidazo [1,5-b]isoxazol]-4′(5′H)-one]	–	–	21.3 ± 0.5 µM	18.1 ± 0.7 µM	14.5 ± 0.9 µM	–	–	–	–	–	–	–	–	–	–	–	–	–	–	–	–
COC(=O)c1cc(C)cc(C[C@@H]2C[C@H]3C(=O)N(C)[C@@]4(C[C@H](C)CC[C@H]4C(C)C)N3O2)c1O [2g, Methyl 2-hydroxy-3-(((1S,2S,2′R,3a′S,5R)-2-isopropyl-5,5′-dimethyl-4′-oxotetrahydro-2′H-spiro[cyclohexane-1,6′-imidazo[1,5-b]isoxazol]-2′-yl)methyl)-5-methylbenzoate]	9.7 ± 1.3 µM	9.7 ± 0.7 µM	17.7 ± 1 µM	12.1 ± 1.1 µM	–	46.49%	24.83%	20.51%	8.17%	75.17%	60.72%	21.24%	17.69%	0.35%	78.76%	12.92%	3.34%	81.05%	2.68%	96.65%	IC50 [10]: 0.484 ± 0.01 µM; cell cycle arrest phase [7]: G0/G1 phase; (%) of cells in G0/G1 [7]: 53.7 ± 0.6%; (%) of cells in S [7]: 36.3 ± 0.6%; cell cycle arrest phase [8]: G0/G1 phase; (%) of cells in G0/G1 ([8]; A549, 48 h at IC50): 49.3 ± 0.7%; (%) of cells in S ([8]; A549, 48 h at IC50): 40.2 ± 0.3%; decrease of population in the G2/M phase vs control ([8]; A549, 48 h at IC50): 2.37 folds; decrease of population in the S phase vs control ([8]; A549, 48 h at IC50): 1.08 folds; cell cycle arrest phase [9]: G0/G1 phase; (%) of cells in G0/G1 [9]: 44.5 ± 0.6%; (%) of cells in S [9]: 44.8 ± 1.6%; decrease in the G2/M phase vs control, factor [9]: 2.44
